27 compounds from patent US20220144853A1, “IMIDAZOLINE DERIVATIVES AS CXCR4 MODULATORS” (Université de Paris, priority 2019, published 2022) can be followed below.

Structures can show the parent of a compound that is named as a salt.

This experiment concerns IFN production by activated PBMCs. The experiment is described as follows: IFN production by R848-activated PBMCs from healthy donors, twINNE reporter cell line. Type of experiment: cell-based, human. Particulars: Homo sapiens, PBMC, means of two results over 2 healthy donors, R848 5 μg/mL, IT1t: mean over all experiments, read-out: IC50 of anti-inflammatory activity (IFN production). The procedure: 2) The blood from healthy donors was also obtained from “Etablissement Français du Sang” (convention #19/EFS/029), Paris, France.
In vitro experiments were performed using human peripheral blood mononuclear cells (PBMCs) isolated by density centrifugation from peripheral blood leukocyte separation medium, lymphoprep (Stemcell Technologies).
PBMCs were cultured in RPMI 1640 (Sigma-Aldrich, MO, USA) containing 10% heat-inactivated fetal bovine serum (Sigma-Aldrich, MO, USA) at 37° C./5% CO2.
2) The PBMCs used herein were prepared as described in part A “immune cells preparation”, section 2) above. PBMCs were seeded at 4.10^6/mL. […] Cells were then stimulated with the TLR7/8 agonist resiquimod—R848 (Sigma-Aldrich, MO, USA) at 5 μg/mL.
2) To quantify the secretion of functional IFN, a biological assay based on a stable cell line where luciferase reporter gene is controlled by five Interferon-Stimulated Response Elements (twINNE cell line) was used. It is important to note that the twINNE cell line is the same as the above mentioned STING-37 cell line but with constitutively expressed nanoluciferase. First, supernatants of R848-stimulated PBMCs (see part B, section 2) above) were harvested after 24 h of stimulation and frozen at −20° C. for storage. Then, supernatants were dispensed in culture wells of a 96-well plate containing 35.103 twINNE cells per well in Dulbecco's Modified Eagle's Medium supplemented with 10% Foetal Bovine Serum, 100 U/mL Penicillin and 100 μg/mL Streptomycin (1% Pen-Strep) and 1 mM glutamine (Sigma-Aldrich, MO, USA) at 37° C./5% […]. After 24 h of culture, luciferase activity was determined by adding 60 μL of Bright-Go reagents (Promega, Wisconsin, USA) to culture wells and measuring bioluminescence with EnSpire Multimode Plate Reader (PerkinElmer, Massachusetts, USA). When stated, for IC50 calculation, dose-response curves fitted using the nonlin fit (variable slope) analysis in GraphPad Prism software (GraphPad Software, California, USA).
For `C1=C(CSC2=N[C@H]3COC[C@H]3N2)N2C(=N[C@@H]3COC[C@@H]32)S1` (mixture of isomers) [Example 36, mixture of (4aS,7aR)-3-((((3aS,6aR)-3a,4,6,6a-tetrahydro-1H-furo[3,4-d]imidazol-2-yl)thio)methyl)-4a,5,7,7a-tetrahydrofuro[3′,4′:4,5]imidazo[2,1-b]thiazole dihydrochloride and (4aR,7aS)-3-((((3aR,6aS)-3a,4,6,6a-tetrahydro-1H-furo[3,4-d]imidazol-2-yl)thio)methyl)-4a,5,7,7a-tetrahydrofuro[3′,4′: 4,5]imidazo[2,1-b]thiazole dihydrochloride], the IC50 is ≥ 31 µM.

For the compound `CC1(C)CN=C(SCC2=CSC3=N[C@H]4CCCC(C4)N23)N1` (racemic) [Example 23, cis-3-(((5,5-dimethyl-4,5-dihydro-1H-imidazol-2-yl)thio)methyl)-6,7,8,9-tetrahydro-5H-5,9-methanothiazolo[3,2-a][1,3]diazocine dihydrochloride], the IC50 was ≥ 31 µM. In the case of `CCCCC1CN=C(SCC2=CSC3=N[C@H]4CCCCC4N23)N1` (mixture of isomers) [Example 54, trans-3-(((5-butyl-4,5-dihydro-1H-imidazol-2-yl)thio)methyl)-4a,5,6,7,8,8a-hexahydrobenzo[4,5]imidazo[2,1-b]thiazole dihydrochloride], the IC50 is ≤ 10 µM. In the case of `C1=C(CSC2=NCC(Cc3ccccc3)N2)N2C(=N[C@H]3CCCCC32)S1` (mixture of isomers) [Example 55, trans-3-(((5-benzyl-4,5-dihydro-1H-imidazol-2-yl)thio)methyl)-4a,5,6,7,8,8a-hexahydrobenzo[4,5]imidazo[2,1-b]thiazole dihydrochloride] it was ≤ 10 µM; in that of `C1=C(CSC2=N[C@H]3CCCC[C@@H]3N2)N2C(=N[C@H]3CCCCC32)S1` (mixture of isomers) [Example 56, trans-3-((((3aS,7aS)-3a,4,5,6,7,7a-hexahydro-1H-benzo[d]imidazol-2-yl)thio)methyl)-4a,5,6,7,8,8a-hexahydrobenzo[4,5]imidazo[2,1-b]thiazole dihydrochloride], ≤ 10 µM.

As to `C1=C(CSC2=NCCN2)N2C(=N[C@H]3CCCCC32)S1` (mixture of isomers) [Example 59, trans-3-(((4,5-dihydro-1H-imidazol-2-yl)thio)methyl)-4a,5,6,7,8,8a-hexahydrobenzo[4,5]imidazo[2,1-b]thiazole dihydrochloride], the half-inhibitory concentration (IC50) was ≤ 10 µM. Next, `CC(C)[C@@H]1N=C2SC=C(CSC3=NCC(C)(C)N3)N2[C@H]1C(C)C` (racemic) [Example 62, trans-3-(((5,5-dimethyl-4,5-dihydro-1H-imidazol-2-yl)thio)methyl)-5,6-diisopropyl-5,6-dihydroimidazo[2,1-b]thiazole dihydrochloride]: 10 to 31 µM. Consider `CC1(C)CN2C(CSC3=N[C@H]4CCCC[C@@H]4N3)=CSC2=N1` [Example 4, 3-((((3aS,7aS)-3a,4,5,6,7,7a-hexahydro-1H-benzo[d]imidazol-2-yl)thio)methyl)-6,6-dimethyl-5,6-dihydroimidazo[2,1-b]thiazole dihydrochloride], for which the IC50 was ≤ 10 µM.

Turning to `CC1(C)CN2C(CSC3=N[C@@H]4CCCC[C@@H]4N3)=CSC2=N1` [Example 5, 3-((((3R,7aS)-3a,4,5,6,7,7a-hexahydro-1H-benzo[d]imidazol-2-yl)thio)methyl)-6,6-dimethyl-5,6-dihydroimidazo[2,1-b]thiazole dihydrochloride], the IC50 lay within 10 to 31 µM.

Regarding `C1=C(CSC2=NCCN2)N2CCN=C2S1` [Example 6, 3-(((4,5-dihydro-1H-imidazol-2-yl)thio)methyl)-5,6-dihydroimidazo[2,1-b]thiazole dihydrochloride], the concentration for half-maximal inhibition (IC50) fell in the range of 10 to 31 µM. Next, `CC1(C)CN2C(CSC3=NCCN3)=CSC2=N1` [Example 8, 3-(((4,5-dihydro-1H-imidazol-2-yl)thio)methyl)-6,6-dimethyl-5,6-dihydroimidazo[2,1-b]thiazole dihydrochloride]: 10 to 31 µM; `CC1(C)CN2C(CSC3=NCCCN3)=CSC2=N1` [Example 9, 6,6-dimethyl-3-(((1,4,5,6-tetrahydropyrimidin-2-yl)thio)methyl)-5,6-dihydroimidazo[2,1-b]thiazole dihydrochloride]: ≥ 31 µM. Turning to `CN1CCN=C1SCC1=CSC2=NC(C)(C)CN12` [Example 11, 6,6-dimethyl-3-(((1-methyl-4,5-dihydro-1H-imidazol-2-yl)thio)methyl)-5,6-dihydroimidazo[2,1-b]thiazole dihydrochloride], the concentration for half-maximal inhibition (IC50) is ≤ 10 µM. In the case of `CC1(C)CN2C(CSC3=NCCCCN3)=CSC2=N1` [Example 12, 6,6-dimethyl-3-(((4,5,6,7-tetrahydro-1H-1,3-diazepin-2-yl)thio)methyl)-5,6-dihydroimidazo[2,1-b]thiazole dihydrochloride] it was ≥ 31 µM; in that of `CCCCC1CN=C(SCC2=CSC3=NC(C)(C)CN23)N1` (stereo not drawn) [Example 13, 3-(((5-butyl-4,5-dihydro-1H-imidazol-2-yl)thio)methyl)-6,6-dimethyl-5,6-dihydroimidazo[2,1-b]thiazole dihydrochloride], ≤ 10 µM. As to `CC1(C)CN=C(SCC2=CSC3=NCCCN23)N1` [Example 14, 3-(((5,5-dimethyl-4,5-dihydro-1H-imidazol-2-yl)thio)methyl)-6,7-dihydro-5H-thiazolo[3,2-a]pyrimidine dihydrochloride], the IC50 was ≥ 31 µM. Next, `CC1(C)CN=C(SCC2=CSC3=NCCCCN23)N1` [Example 15, 3-(((5,5-dimethyl-4,5-dihydro-1H-imidazol-2-yl)thio)methyl)-5,6,7,8-tetrahydrothiazolo[3,2-a][1,3]diazepine dihydrochloride]: ≥ 31 µM. As for `CC1(C)CN2C(CSC3=NC(C)(C)C(C)(C)N3)=CSC2=N1` [Example 16, 6,6-dimethyl-3-(((4,4,5,5-tetramethyl-4,5-dihydro-1H-imidazol-2-yl)thio)methyl)-5,6-dihydroimidazo[2,1-b]thiazole dihydrochloride], the IC50 is ≥ 31 µM. For the compound `CCCCC1CN2C(CSC3=NCC(C)(C)N3)=CSC2=N1` (stereo not drawn) [Example 19, 6-butyl-3-(((4,4-dimethyl-4,5-dihydro-1H-imidazol-2-yl)thio)methyl)-5,6-dihydroinidazo[2,1-b]thiazole dihydrochloride], the IC50 lay in the range of 10 to 31 µM. On to `CC1(C)CN=C(SCC2=CSC3=NC(C)(C)C(C)(C)N23)N1` [Example 20, 3-(((5,5-dimethyl-4,5-dihydro-1H-imidazol-2-yl)thio)methyl)-5,5,6,6-tetramethyl-5,6-dihydroimidazo[2,1-b]thiazole dihydrochloride], for which the half-inhibitory concentration (IC50) lay in the range of 10 to 31 µM. Next, `CC1(C)CN=C(SCC2=CSC3=NCCN23)N1` [Example 21, 3-(((5,5-dimethyl-4,5-dihydro-1H-imidazol-2-yl)thio)methyl)-5,6-dihydroimidazo[2,1-b]thiazole dihydrochloride]: 10 to 31 µM; `CC1(C)CN2C(CSC3=N[C@@H]4CCC[C@@H](C4)N3)=CSC2=N1` [Example 22, 3-((((1R,5S)-2,4-diazabicyclo[3.3.1]non-2-en-3-yl)thio)methyl)-6,6-dimethyl-5,6-dihydroimidazo[2,1-b]thiazole dihydrochloride]: ≥ 31 µM; `CC1(C)CN2C(CSC3=NCC4(CC4)N3)=CSC2=N1` [Example 24, 3-(((4,6-diazaspiro[2.4]hept-5-en-5-yl)thio)methyl)-6,6-dimethyl-5,6-dihydroimidazo[2,1-b]thiazole dihydrochloride]: 10 to 31 µM. In the case of `CC1(C)CN2C(CSC3=N[C@H]4COC[C@H]4N3)=CSC2=N1` [Example 25, (3aR,6aS)-2-(((6,6-dimethyl-5,6-dihydroinidazo[2,1-b]thiazol-3-yl)methyl)thio)-3a,4,6,6a-tetrahydro-1H-furo[3,4-d]imidazole dihydrochloride], the IC50 is ≥ 31 µM. Next, `C1=C(CSC2=NCCN2)N2CCCN=C2S1` [Example 26, 3-(((4,5-dihydro-1H-imidazol-2-yl)thio)methyl)-6,7-dihydro-5H-thiazolo[3,2-a]pyrimidine dihydrochloride]: ≥ 31 µM; `C1=C(CSC2=NCCN2)N2CCCCN=C2S1` [Example 27, 3-(((4,5-dihydro-1H-imidazol-2-yl)thio)methyl)-5,6,7,8-tetrahydrothiazolo[3,2-a][1,3]diazepine dihydrochloride]: ≥ 31 µM. As to `CC1(C)CN=C(SCC2=CSC3=NC(C)(C)CN23)NC1` [Example 28, 3-(((5,5-dimethyl-1,4,5,6-tetrahydropyrimidin-2-yl)thio)methyl)-6,6-dimethyl-5,6-dihydroimidazo[2,1-b]thiazole dihydrochloride], the IC50 was ≥ 31 µM.

A word on the IC50: it is the midpoint of a concentration-inhibition curve.
